According to US8952024B2, “Herbicidal pyrimidone derivatives” (E I du Pont de Nemours and Company, priority 2009, dated 2015):

Legend:
Assay in all cases: Test B pre-/postemergence plant response
Assay type in all cases: in vivo
Conditions in all cases: Postemergence
[1] = system: Italian ryegrass (Lolium multiflorum)
Outline: (§1)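 Plants treated either at seeding (loam/sand soil) or postemergence at 2 to 18 cm height, using a surfactant-containing non-phytotoxic solvent formulation. Evaluation was visual after 13 to 15 days, 0 to 100 scale relative to controls.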

[2] = system: Surinam grass (Brachiaria decumbens)
Outline: as §1

[3] = system: downy bromegrass (Bromus tectorum)
Outline: as §1

[4] = system: goosegrass (Eleusine indica)
Outline: as §1

[5] = system: green foxtail (Setaria viridis)
Outline: as §1

[6] = system: lambsquarters (Chenopodium album)
Outline: as §1

[7] = system: large crabgrass (Digitaria sanguinalis)
Outline: as §1

[8] = system: pigweed (Amaranthus retroflexus)
Outline: as §1

[9] = system: ragweed (common ragweed, Ambrosia elatior)
Outline: as §1

[10] = system: velvetleaf (Abutilon theophrasti)
Outline: as §1

[11] = system: wheat (Triticum aestivum)
Outline: as §1

[12] = system: woolly cupgrass (Eriochloa villosa)
Outline: as §1

[13] = system: yellow nutsedge (Cyperus esculentus)
Outline: as §1

[14] = 31 g ai/ha, 0 to 100 scale (0 no effect, 100 complete control)
[15] = 62 g ai/ha, scale 0 to 100 (0 no effect, 100 complete control)
[16] = 125 g ai/ha, scale 0 to 100 (0 no effect, 100 complete control)
[17] = 250 g ai/ha, scale 0 to 100 (0 no effect, 100 complete control), 13 to 15 days

SMILES: CC1(C)CC(=O)C(C(=O)c2cnc(-c3ccccc3)n(-c3ccccc3)c2=O)=C(O)C1 [Compound 225]
- Plant response rating, Ryegrass, Italian ([1]; 16 g ai/ha, 0 to 100 scale): 0
- Plant response rating, Ryegrass, Italian [1, 14]: 0
- Plant response rating, Ryegrass, Italian [1, 15]: 35
- Plant response rating, Surinam Grass ([2]; 16 g ai/ha, 0 to 100 scale): 35
- Plant response rating, Surinam Grass [2, 14]: 75
- Plant response rating, Surinam Grass [2, 15]: 75
- Plant response rating, Bromegrass, Downy ([3]; 16 g ai/ha, 0 to 100 scale): 30
- Plant response rating, Bromegrass, Downy [3, 14]: 35
- Plant response rating, Bromegrass, Downy [3, 15]: 70
- Plant response rating, Bromegrass, Downy [3, 16]: 85
- Plant response rating, Goosegrass ([4]; 16 g ai/ha, 0 to 100 scale): 80
- Plant response rating, Goosegrass [4, 14]: 85
- Plant response rating, Goosegrass [4, 15]: 90
- Plant response rating, Goosegrass [4, 16]: 95
- Plant response rating, Foxtail, Green ([5]; 16 g ai/ha, 0 to 100 scale): 85
- Plant response rating, Foxtail, Green [5, 14]: 85
- Plant response rating, Foxtail, Green [5, 15]: 98
- Plant response rating, Foxtail, Green [5, 16]: 98
- Plant response rating, Lambsquarters ([6]; 16 g ai/ha, 0 to 100 scale): 85
- Plant response rating, Lambsquarters [6, 14]: 85
- Plant response rating, Lambsquarters [6, 15]: 85
- Plant response rating, Lambsquarters [6, 16]: 98
- Plant response rating, Crabgrass, Large ([7]; 16 g ai/ha, 0 to 100 scale): 70
- Plant response rating, Crabgrass, Large [7, 14]: 75
- Plant response rating, Crabgrass, Large [7, 15]: 85
- Plant response rating, Crabgrass, Large [7, 16]: 95
- Plant response rating, Pigweed ([8]; 16 g ai/ha, 0 to 100 scale): 80
- Plant response rating, Pigweed [8, 14]: 90
- Plant response rating, Pigweed [8, 15]: 95
- Plant response rating, Ragweed ([9]; 16 g ai/ha, 0 to 100 scale): 70
- Plant response rating, Ragweed [9, 14]: 75
- Plant response rating, Ragweed [9, 15]: 80
- Plant response rating, Velvetleaf ([10]; 16 g ai/ha, 0 to 100 scale): 80
- Plant response rating, Velvetleaf [10, 14]: 80
- Plant response rating, Velvetleaf [10, 15]: 90
- Plant response rating, Wheat ([11]; 16 g ai/ha, 0 to 100 scale): 20
- Plant response rating, Wheat [11, 14]: 30
- Plant response rating, Wheat [11, 15]: 40
- Plant response rating, Cupgrass, Woolly ([12]; 16 g ai/ha, 0 to 100 scale): 70
- Plant response rating, Cupgrass, Woolly [12, 14]: 75
- Plant response rating, Cupgrass, Woolly [12, 15]: 75
- Plant response rating, Cupgrass, Woolly [12, 16]: 85
- Plant response rating, Nutsedge, Yellow ([13]; 16 g ai/ha, 0 to 100 scale): 5
- Plant response rating, Nutsedge, Yellow [13, 14]: 10
- Plant response rating, Nutsedge, Yellow [13, 15]: 25
- Plant response rating, Nutsedge, Yellow [13, 16]: 25

SMILES: CCCn1c(-c2ccsc2)ncc(C(=O)C2=C(O)C3CCC(C3)C2=O)c1=O (stereo not shown) [Compound 227]
- Plant response rating, Ryegrass, Italian [1, 14]: 0
- Plant response rating, Ryegrass, Italian [1, 15]: 0
- Plant response rating, Ryegrass, Italian [1, 17]: 10
- Plant response rating, Surinam Grass [2, 14]: 55
- Plant response rating, Surinam Grass [2, 15]: 70
- Plant response rating, Surinam Grass [2, 17]: 95
- Plant response rating, Bromegrass, Downy [3, 14]: 0
- Plant response rating, Bromegrass, Downy [3, 15]: 0
- Plant response rating, Bromegrass, Downy [3, 16]: 0
- Plant response rating, Bromegrass, Downy [3, 17]: 25
- Plant response rating, Goosegrass [4, 14]: 75
- Plant response rating, Goosegrass [4, 15]: 75
- Plant response rating, Goosegrass [4, 16]: 75
- Plant response rating, Goosegrass [4, 17]: 80
- Plant response rating, Foxtail, Green [5, 14]: 50
- Plant response rating, Foxtail, Green [5, 15]: 90
- Plant response rating, Foxtail, Green [5, 16]: 90
- Plant response rating, Foxtail, Green [5, 17]: 90
- Plant response rating, Lambsquarters [6, 14]: 90
- Plant response rating, Lambsquarters [6, 15]: 98
- Plant response rating, Lambsquarters [6, 16]: 98
- Plant response rating, Lambsquarters [6, 17]: 98
- Plant response rating, Crabgrass, Large [7, 14]: 80
- Plant response rating, Crabgrass, Large [7, 15]: 80
- Plant response rating, Crabgrass, Large [7, 16]: 85
- Plant response rating, Crabgrass, Large [7, 17]: 90
- Plant response rating, Pigweed [8, 14]: 80
- Plant response rating, Pigweed [8, 15]: 90
- Plant response rating, Pigweed [8, 17]: 100
- Plant response rating, Ragweed [9, 14]: 60
- Plant response rating, Ragweed [9, 15]: 70
- Plant response rating, Ragweed [9, 17]: 85
- Plant response rating, Velvetleaf [10, 14]: 80
- Plant response rating, Velvetleaf [10, 15]: 80
- Plant response rating, Velvetleaf [10, 17]: 98
- Plant response rating, Wheat [11, 14]: 0
- Plant response rating, Wheat [11, 15]: 0
- Plant response rating, Wheat [11, 17]: 20
- Plant response rating, Cupgrass, Woolly [12, 14]: 55
- Plant response rating, Cupgrass, Woolly [12, 15]: 75
- Plant response rating, Cupgrass, Woolly [12, 16]: 90
- Plant response rating, Cupgrass, Woolly [12, 17]: 95
- Plant response rating, Nutsedge, Yellow [13, 14]: 10
- Plant response rating, Nutsedge, Yellow [13, 15]: 45
- Plant response rating, Nutsedge, Yellow [13, 16]: 65
- Plant response rating, Nutsedge, Yellow [13, 17]: 65

SMILES: COCCn1c(-c2ccsc2)ncc(C(=O)C2=C(O)C3CCC(C3)C2=O)c1=O (stereo not shown) [Compound 228]
- Plant response rating, Ryegrass, Italian [1, 14]: 0
- Plant response rating, Ryegrass, Italian [1, 15]: 0
- Plant response rating, Ryegrass, Italian [1, 17]: 0
- Plant response rating, Surinam Grass [2, 14]: 75
- Plant response rating, Surinam Grass [2, 15]: 85
- Plant response rating, Surinam Grass [2, 17]: 98
- Plant response rating, Bromegrass, Downy [3, 14]: 5
- Plant response rating, Bromegrass, Downy [3, 15]: 5
- Plant response rating, Bromegrass, Downy [3, 16]: 10
- Plant response rating, Bromegrass, Downy [3, 17]: 10
- Plant response rating, Goosegrass [4, 14]: 80
- Plant response rating, Goosegrass [4, 15]: 80
- Plant response rating, Goosegrass [4, 16]: 85
- Plant response rating, Goosegrass [4, 17]: 90
- Plant response rating, Foxtail, Green [5, 14]: 85
- Plant response rating, Foxtail, Green [5, 15]: 90
- Plant response rating, Foxtail, Green [5, 16]: 98
- Plant response rating, Foxtail, Green [5, 17]: 100
- Plant response rating, Lambsquarters [6, 14]: 98
- Plant response rating, Lambsquarters [6, 15]: 98
- Plant response rating, Lambsquarters [6, 16]: 100
- Plant response rating, Lambsquarters [6, 17]: 100
- Plant response rating, Crabgrass, Large [7, 14]: 80
- Plant response rating, Crabgrass, Large [7, 15]: 98
- Plant response rating, Crabgrass, Large [7, 16]: 98
- Plant response rating, Crabgrass, Large [7, 17]: 98
- Plant response rating, Pigweed [8, 14]: 98
- Plant response rating, Pigweed [8, 15]: 100
- Plant response rating, Pigweed [8, 17]: 100
- Plant response rating, Ragweed [9, 14]: 70
- Plant response rating, Ragweed [9, 15]: 80
- Plant response rating, Ragweed [9, 17]: 98
- Plant response rating, Velvetleaf [10, 14]: 80
- Plant response rating, Velvetleaf [10, 15]: 100
- Plant response rating, Velvetleaf [10, 17]: 100
- Plant response rating, Wheat [11, 14]: 0
- Plant response rating, Wheat [11, 15]: 5
- Plant response rating, Wheat [11, 17]: 35
- Plant response rating, Cupgrass, Woolly [12, 14]: 75
- Plant response rating, Cupgrass, Woolly [12, 15]: 95
- Plant response rating, Cupgrass, Woolly [12, 16]: 95
- Plant response rating, Cupgrass, Woolly [12, 17]: 98
- Plant response rating, Nutsedge, Yellow [13, 14]: 40
- Plant response rating, Nutsedge, Yellow [13, 15]: 45
- Plant response rating, Nutsedge, Yellow [13, 16]: 60
- Plant response rating, Nutsedge, Yellow [13, 17]: 70

SMILES: O=C(C1=C(O)C2CCC(C2)C1=O)c1cnc(-c2ccsc2)n(CC2CCCO2)c1=O (stereo not shown) [Compound 229]
- Plant response rating, Ryegrass, Italian [1, 14]: 0
- Plant response rating, Ryegrass, Italian [1, 15]: 0
- Plant response rating, Ryegrass, Italian [1, 17]: 10
- Plant response rating, Surinam Grass [2, 14]: 65
- Plant response rating, Surinam Grass [2, 15]: 70
- Plant response rating, Surinam Grass [2, 17]: 90
- Plant response rating, Bromegrass, Downy [3, 14]: 5
- Plant response rating, Bromegrass, Downy [3, 15]: 15
- Plant response rating, Bromegrass, Downy [3, 16]: 20
- Plant response rating, Bromegrass, Downy [3, 17]: 30
- Plant response rating, Goosegrass [4, 14]: 70
- Plant response rating, Goosegrass [4, 15]: 70
- Plant response rating, Goosegrass [4, 16]: 70
- Plant response rating, Goosegrass [4, 17]: 80
- Plant response rating, Foxtail, Green [5, 14]: 40
- Plant response rating, Foxtail, Green [5, 15]: 80
- Plant response rating, Foxtail, Green [5, 16]: 80
- Plant response rating, Foxtail, Green [5, 17]: 95
- Plant response rating, Lambsquarters [6, 14]: 85
- Plant response rating, Lambsquarters [6, 15]: 95
- Plant response rating, Lambsquarters [6, 16]: 95
- Plant response rating, Lambsquarters [6, 17]: 98
- Plant response rating, Crabgrass, Large [7, 14]: 80
- Plant response rating, Crabgrass, Large [7, 15]: 90
- Plant response rating, Crabgrass, Large [7, 16]: 90
- Plant response rating, Crabgrass, Large [7, 17]: 90
- Plant response rating, Pigweed [8, 14]: 80
- Plant response rating, Pigweed [8, 15]: 95
- Plant response rating, Pigweed [8, 17]: 100
- Plant response rating, Ragweed [9, 14]: 80
- Plant response rating, Ragweed [9, 15]: 80
- Plant response rating, Ragweed [9, 17]: 95
- Plant response rating, Velvetleaf [10, 14]: 75
- Plant response rating, Velvetleaf [10, 15]: 75
- Plant response rating, Velvetleaf [10, 17]: 85
- Plant response rating, Wheat [11, 14]: 0
- Plant response rating, Wheat [11, 15]: 0
- Plant response rating, Wheat [11, 17]: 35
- Plant response rating, Cupgrass, Woolly [12, 14]: 70
- Plant response rating, Cupgrass, Woolly [12, 15]: 75
- Plant response rating, Cupgrass, Woolly [12, 16]: 80
- Plant response rating, Cupgrass, Woolly [12, 17]: 90
- Plant response rating, Nutsedge, Yellow [13, 14]: 0
- Plant response rating, Nutsedge, Yellow [13, 15]: 20
- Plant response rating, Nutsedge, Yellow [13, 16]: 40
- Plant response rating, Nutsedge, Yellow [13, 17]: 55
